Laboratory results as given in patent publication US11484501B2, “Mechanochemical activated dry amorphisation by milling equilibrium between ap mesoporous silica” (priority 2015, dated 2022).

Experiment: Amorphonisation of co-milled drug by X-ray diffraction and DSC
Assay type: physicochemical
Conditions: vibration ball mill
Method: Amorphonisation of co-milled IBU was confirmed by DSC and X-RD study. Drug release studies were conducted by and using USP Dissolution apparatus II and media (e.g., acetate buffer) of pH 4.5. Formation of hydrogen bond between silanol groups of SYLOID® silica and functional groups of IBU were believe to be the key to drug amorphonisation in the co-milling process. To confirm the IBU amorphonisation, X-ray diffraction study (XRD) was conducted. […] Additionally, DSC studies were conducted to understand the amorphonisation and possible interaction between silanol groups of SYLOID® silica and IBU. DSC thermograms, shown in FIGS. 5A-5B, confirmed both change in enthalpy and symmetry of peak shape.

## CC(C)Cc1ccc(C(C)C(=O)O)cc1 (stereo not shown) [IBU, ibuprofen]
  amorphonisation of the crystalline drug into an amorphous state by (co-)milling: does not result in an amorphous form
